Results as given in paper PMC10458971, “Chemical Constituents with Anti-Lipid Droplet Accumulation and Anti-Inflammatory Activity from Elaeagnus glabra” (Plants, 2023).
Entries after “also recorded” stand apart in the source; their conditions may differ. Where two headings read alike, the source gives them in different places.

Experiments:
Format in all cases: cell-based
[1] = tested on: fMLP/CB-induced human neutrophils; assay: Superoxide anion generation in fMLP/CB-induced human neutrophils; conditions: for IC50: fMLP/CB-induced human neutrophils, mean ± S.E.M. (n = 3–4); for Inhibitory activity toward superoxide anion generation or elastase release (preliminary screening, Inh%): 10 μM, Figure 6
Text: (§1) NAFLD is accompanied by inflammation. In the NASH stage, the liver is inflamed. As the NAFLD progresses, persistent inflammation causes scar tissue around the liver; this is called the fibrosis stage. After years of inflammation, liver damage occurs and becomes cirrhosis. To explore the potential of compounds for managing inflammation, eight compounds were preliminarily evaluated for their effects on neutrophil pro-inflammatory responses by suppressing fMLP/CB-induced superoxide anion generation and elastase release (Figure 6 and Table 4). […] These two compounds were further evaluated for their anti-inflammatory activity IC50 values (Table 4).
(§2) Neutrophils were collected from healthy adults aged 20–35 and isolated using Ficoll-Paque density separation. The study was approved by Chang Gung Memorial Hospital’s Institutional Review Board (IRB No. 201902217A3) following the Declaration of Helsinki guidelines. The methods for testing the effects of isolates on superoxide anion generation and elastase release in neutrophils were based on studies published by Professor Tsong-Long Hwang. Ferricytochrome c (0.6 mg/mL) was used to measure superoxide anion. Elastase substrate (methoxysuccinyl-Ala-Ala-Pro-Val-p-nitroanilide, 100 µM; Merck) was employed to detect the elastase release. The elastase level was detected using a spectrophotometer at OD 405 nm. A PI3K inhibitor, namely, LY29002, was used as a positive control in the neutrophil assays. All assays were repeated at least three times. Results are presented as the mean ± standard error of the mean (S.E.M.). Student′s t-test was used to compare the test isolates with a DMSO (0.1%) control. A probability of less than 0.05 was considered significant.

[2] = tested on: fMLP/CB-induced human neutrophils; assay: Elastase release in fMLP/CB-induced human neutrophils; conditions: mean ± S.E.M. (n = 3–4)
Text: as §1, §2

AML12 cell line [3] = assay: LD assay: anti-lipid droplet accumulation in oleic-acid-treated AML12 cells (BODIPY 493/503)
Procedure: (§3) In this study, twelve compounds present in sufficient amounts (9, 11, 15, 16, 18–20, 22, 25, 30, 31, and 37) were evaluated for anti-LD accumulation activity (Table 3). To assess the anti-LD formation activity, the average LD counts/cell of bovine serum albumin (BSA)-conjugated oleic acid (OA) + drug vehicle (DMSO)-treated wells (hereinafter referred to as OA) were used as the standard for 100% fat loading, and triacsin C (TC) was used as the reference control. […] In Figure 5A, the blue pseudocolor indicates the nuclei area, and the green ones depict the LD area.
Figure 5 Effect of methyl pheophorbide a (37) on LD accumulation. (A) Representative images of the anti-LD formation activity of methyl pheophorbide a (37). (B) Quantification results of the LD assay and cell viability. AML12 cells were treated with BSA or OA (125 µM) with 20 µM methyl pheophorbide a (37) for 24 h. AML12 cells were used as a cell model for lipid accumulation—they were treated with 125 μM oleic acid (OA) for 24 h. Nuclei and LD were stained with Hoechst 33342 (blue) and BODIPY® 493/503 (green), respectively. The asterisk indicates a significant difference from the solvent control cells (*** p < 0.001, one-way ANOVA). TEXT PRINTED IN THE PICTURE: (B) BSA: Normalized LD Count (%): 17.3% *** | (B) OA: Normalized LD Count (%): 100.0% | (B) OA + 37: Normalized LD Count (%): 0.3% ***
(§4) Cells were cultured as described previously. The medium for AML12 (BCRC 60326; Bioresources Collection and Research Center (BCRC), Hsinchu, Taiwan) was a 1:1 mixture of DMEM and Ham’s F12 medium with 10% FBS and 1× ITS-A supplement (Thermo Fisher Scientific).
The LD accumulation of the test compounds was evaluated according to the studies published by co-author Professor Chia-Hung Yen. The LD accumulation was detected by BODIPY® 493/503 dye (Thermo Fisher Scientific). LD accumulation was achieved by treating cells with OA conjugated to BSA. All data were analyzed with GraphPad Prism 6.01 software (La Jolla, CA, USA). One-way analysis of variance (ANOVA) followed by Tukey’s comparison test was used to compare differences between multiple groups. A p-value < 0.05 was considered statistically significant.

[4] = Cell viability (nucleus counts, DAPI image) in AML12 cells; conditions: mouse
Procedure: as §3, §4

AML12 cell line [5] = assay: as above; conditions: AML12; for Cell Viability (%, 24h, DAPI Image): compound 100 μg/mL, nucleus counts of DMSO = 100%
Procedure: as §3, §4

[6] = Mus musculus, compound 100 μg/mL, AML12, average LD counts/cell of oleic-acid-treated group = 100% fat-loading, read-out: Relative Lipid Droplet Count (%)
[7] = AML12 cells, compound 100 μg/mL, 24 h, AML12, nucleus counts of DMSO = 100%, read-out: Cell Viability (%, 24h, DAPI Image)
[8] = compound 100 μg/mL, AML12, average LD counts/cell of oleic-acid-treated group = 100% fat-loading
[9] = Mus musculus, AML12, read-out: Relative Lipid Droplet Count (%)
[10] = compound 100 μg/mL, 24 h, AML12, nucleus counts of DMSO = 100%, read-out: Cell Viability (%, 24h, DAPI Image)

For `C=C(C)C1CCC2(C(=O)O)CCC3(C)C(CCC4C5(C)CCC(OC(=O)C=Cc6ccc(O)c(O)c6)C(C)(C)C5CCC43C)C12` (single isomer, unassigned; (+)) [(+)-3β-O-trans-caffeoyl betulinic acid], the IC50 [1] was over 10 µM and the IC50 [2] was over 10 µM.
For `CC1(C)CCC23CCC4(C)C5(C)CCC6C(C)(CO)C(O)C(O)CC6(C)C5C5OC5C4(OC2=O)C3C1` (stereo not drawn) [2α,3β,23-trihydroxy-11α,12α-epoxyolean-28,13β-olide], the IC50 [1] was over 10 µM and the IC50 [2] was over 10 µM.
In the case of `CC1(C)CC[C@]2(C(=O)O)CC[C@]3(C)C(=CCC4[C@@]5(C)CC[C@H](OC(=O)/C=C/c6ccc(O)c(O)c6)C(C)(C)C5CC[C@]43C)C2C1` (stereo partly shown) [3-O-(E)-caffeoyloleanolic acid (13), 3-O-(E)-caffeoyloleanolic acid], the “Inhibitory activity toward superoxide anion generation or elastase release (preliminary screening, Inh%)” value [1] is reported as “significant inhibitory activity”, the IC50 [1] is reported as 3.01 ± 0.58 µM and the IC50 [2] is reported as over 10 µM.
With `O=C(O)c1ccc(CCO)cc1` [4-(2-hydroxyethyl)benzoic acid (26), 4-(2-hydroxyethyl)benzoic acid] the IC50 ([1]; Homo sapiens, Neutrophil) was over 10 µM and the IC50 ([2]; Homo sapiens, Neutrophil) was over 10 µM.
With `Oc1cc(O)c2c(c1)O[C@@H](c1ccc(O)c(O)c1)[C@H](O)C2` [(−)-catechin (16), (−)-catechin] the activity at 100 µg/mL (AML12 cell line [3]; [6]) was 111 ± 5.1% and the viability at 24 h, 100 μg/mL [4, 7] was 154 ± 12.3%.
With `Oc1cc(O)c2c(c1)O[C@H](c1ccc(O)c(O)c1)[C@H](O)C2` [(−)-epicatechin (18), (−)-epicatechin] the activity at 100 µg/mL (AML12 cell line [3]; [6]) was 116 ± 6% and the viability at 24 h, 100 μg/mL [4, 7] was 146 ± 10.3%.
For `Oc1cc(O)c2c(c1)O[C@H](c1cc(O)c(O)c(O)c1)[C@H](O)C2` [(−)-epigallocatechin (19), (−)-epigallocatechin], the “Relative Lipid Droplet Count (%)” value (AML12 cell line [3]; [8]) was 93.5 ± 6.6%.
In the case of `Oc1cc(O)c2c(c1)O[C@@H](c1cc(O)c(O)c(O)c1)[C@H](O)C2` [(−)-gallocatechin (20), (−)-gallocatechin], the activity at 100 µg/mL (AML12 cell line [3]; [6]) is reported as 117 ± 7.8% and the viability at 24 h, 100 μg/mL [4] is reported as 154 ± 6.2%.
Compound `O=c1cc(N2CCOCC2)oc2c(-c3ccccc3)cccc12` [LY294002, reference compound] has an IC50 ([1]; Homo sapiens, Neutrophil) of 1.29 ± 0.52 µM and an IC50 ([2]; Homo sapiens, Neutrophil) of 2.61 ± 0.72 µM.
In the case of `CCC/C=C/C/C=C/C=C/C=N/NN=O` [TC, Triacsin C, reference compound], the activity at 0.008 µM (AML12 cell line [3]; [9]) is reported as 60.6 ± 0.2% and the viability at 24 h, 0.008 µM ([4]; positive control, drug concentration 8 nM, 24 h, AML12, DMSO = 100%) is reported as 126 ± 6.1%.
`CC1(C)CC[C@]2(C(=O)O)CC[C@]3(C)C(=C[C@@H](O)[C@@H]4[C@@]5(C)C[C@@H](O)[C@H](O)[C@@](C)(CO)[C@@H]5CC[C@]43C)[C@@H]2C1` [cleistocalyxic acid E (7), cleistocalyxic acid E] showed an IC50 [1] of over 10 µM and an IC50 [2] of over 10 µM.
With `CC1(C)CC[C@@]23CC[C@]4(C)[C@@](OC2=O)([C@@H]3C1)[C@H]1O[C@H]1[C@@H]1[C@@]2(C)CC[C@H](OC(=O)/C=C/c3ccc(O)c(O)c3)C(C)(C)[C@@H]2CC[C@]14C` [elaeagterpene A (2), (3S,4aR,6aR,6bS,8aS,12aR,12bS,12cS,13aS,13bR,13cS)-4,4,6a,6b,11,11,13c-Heptamethyl-15-oxooctadecahydro-1H,9H-12b,8a-(epoxymethano)piceno [13,14-b]oxiren-3-yl(E)-3-(3,4-dihydroxyphenyl)acrylate] the IC50 ([1]; Homo sapiens, Neutrophil) was over 10 µM and the IC50 ([2]; Homo sapiens, Neutrophil) was over 10 µM.
For `C=C(C)[C@@H]1CC[C@]2(C)CC[C@]3(C)[C@H](CC[C@@H]4[C@@]5(C)CC[C@H](O)C(C)(C)[C@@H]5CC[C@]43C)[C@@H]12` [lupeol (9), lupeol], the activity at 100 µg/mL (AML12 cell line [3]; [6]) was 95.2 ± 1.8% and the viability at 24 h, 100 μg/mL [4, 7] was 114 ± 3.6%.
With `C=Cc1c(C)c2cc3nc(c4c5[nH]c(cc6nc(cc1[nH]2)C(C)=C6CC)c(C)c5C(=O)[C@@H]4C(=O)OC)[C@@H](CCC(=O)OC)[C@@H]3C` [methyl pheophorbide a (37), methyl pheophorbide a] the “Inhibitory activity toward superoxide anion generation or elastase release (preliminary screening, Inh%)” value [1] was “significant inhibitory activity”, the IC50 ([2]; Homo sapiens, Neutrophil) was under 3 µM and the IC50 [2] was 2.35 ± 0.12 µM. For the same compound, the LD content reduction (AML12 cell line [3]; 20 μM, AML12) was “more than 90%”, the “Normalized LD Count (%) / normalized LD content” value (AML12 cell line [3]; 20 μM, AML12, OA 125 μM, 24 h, OA = 100%) was 0.3% and the activity at 100 µg/mL (AML12 cell line [3]; [6]) was 0.3 ± 0.1%. The Cytotoxicity (AML12 cell line [5]; 20 μM) was “without significant cytotoxic effects; also recorded: without cytotoxicity”, the “Cell Viability (%, 24h, DAPI Image)” value (AML12 cell line [5]) was “did not affect the cell viability” and the viability at 24 h, 100 μg/mL [4, 7] was 99.5 ± 5.4%.
`COc1cc(C=O)cc(OC)c1O` [syringaldehyde (25), syringaldehyde] gave an IC50 ([1]; Neutrophil) of over 10 µM, an IC50 ([2]; Neutrophil) of over 10 µM and an activity at 100 µg/mL (AML12 cell line [3]; [9]) of 102 ± 5%. For the same compound, the viability at 24 h, 100 μg/mL [4, 10] was 138 ± 5.7%.
In the case of `C[C@H]1[C@H](C)CC[C@]2(C(=O)O)CC[C@]3(C)C(=CC[C@@H]4[C@@]5(C)CC[C@H](O)C(C)(C)[C@@H]5CC[C@]43C)[C@H]12` [ursolic acid (11), ursolic acid], the activity at 100 µg/mL (AML12 cell line [3]; [6]) is reported as 99.2 ± 4% and the viability at 24 h, 100 μg/mL [4, 7] is reported as 146 ± 4.5%.
`CC[C@H](CC[C@@H](C)[C@H]1CC[C@H]2[C@@H]3CC=C4C[C@@H](O)CC[C@]4(C)[C@H]3CC[C@]12C)C(C)C` [β-sitosterol (30), β-sitosterol] showed an activity at 100 µg/mL (AML12 cell line [3]; [9]) of 113 ± 7.6% and a viability at 24 h, 100 μg/mL [4, 10] of 128 ± 9.1%.
With `CC[C@H](CC[C@@H](C)[C@H]1CC[C@H]2[C@@H]3CCC4=CC(=O)CC[C@]4(C)[C@H]3CC[C@]12C)C(C)C` [β-sitosterone (31), β-sitosterone] the “Relative Lipid Droplet Count (%)” value (AML12 cell line [3]; [8]) was 121.5 ± 4.3% and the “Cell Viability (%, 24h, DAPI Image)” value (AML12 cell line [5]) was 135.3 ± 7.3%.
In the case of “plumbocatechin A [plumbocatechin A (22)]”, the “Relative Lipid Droplet Count (%)” value (AML12 cell line [3]; [8]) is reported as 118.2 ± 3.1% and the “Cell Viability (%, 24h, DAPI Image)” value (AML12 cell line [5]) is reported as 147.8 ± 9.6%.
With “plumbocatechins B [plumbocatechins B (15)]” the “Relative Lipid Droplet Count (%)” value (AML12 cell line [3]; [8]) was 105.9 ± 7.8% and the “Cell Viability (%, 24h, DAPI Image)” value (AML12 cell line [5]) was 132.5 ± 11.8%.
